The text below walks through data of patent US20180296595A1, “METHODS AND COMPOSITIONS FOR CANCER TREATMENT” (Memorial Sloan Kettering Cancer Center, priority 2015, published 2018).

Ends that are not written are not given here.

One assay has as its target FR1 (Homo sapiens, UniProt P15328). Particulars: read-out: affinity for FR1; cited from earlier work.
In a further assay the target is FR2 (Homo sapiens, UniProt P14207). Particulars: read-out: affinity for FR2; cited from earlier work.
For another assay, the system named is LNCaP xenografts. Put plainly: LNCaP prostate cancer xenografts. The class given is in vivo. The protocol:
Each of the photographs in FIG. 6, panel C and panel D depicts a representative animal treated with vehicle (FIG. 6, panel C) or bortezomib-loaded FH (1.0 mM) (FIG. 6, panel D).
Studies in breast cancer described a “low intracellular iron” phenotype, characterized by high ferroportin, which was associated with good prognosis. In contrast, the “high intracellular iron” phenotype, characterized by low ferroportin and high hepcidin, was associated with a poor prognosis (Pinnix et al. (2010), Sci. Transl. Med., 2(43): 43ra56). Recently, a similar observation was made in prostate cancer (Tesfay et al. (2015) Cancer Res., 75(11):2254-63. To extend the analysis to prostate cancer, LNCaP prostate cancer xenografts were treated with FH-loaded bortezomib (a ROS-inducing drug).
FH alone was able to decrease tumor volume by about 33% (panel b). […] Free bortezomib was not effective, but when loaded into FH a significant therapy effect was achieved as shown in (panels a and b). Importantly, FH alone also exerted an effect, decreasing tumor volume. Each of the photographs in panel c and panel d depicts a representative animal treated with vehicle (panel c) or bortezomib-loaded FH (1.0 mM) (panel d).

Another assay relates to 22RV1 cells. Put plainly: FPN expression after hepcidin therapy. In kind it is cell-based. From the text:
As a followup, eight different genomic datasets available for prostate cancer on cBioPortal (www.cbioportal.org) containing whole genome data from 1229 prostate cancer patients were mined for analysis. […] FACS and Western Blotting confirmed higher expression of FPN in 22RV1 compared to DU145 (FIG. 7, panel C). […] In 22RV1 cells with higher FPN higher levels of erastin were required compared to DU145 cells with low FPN (FIG. 7, panel E).

Sequence of FR1 (P15328 25-234): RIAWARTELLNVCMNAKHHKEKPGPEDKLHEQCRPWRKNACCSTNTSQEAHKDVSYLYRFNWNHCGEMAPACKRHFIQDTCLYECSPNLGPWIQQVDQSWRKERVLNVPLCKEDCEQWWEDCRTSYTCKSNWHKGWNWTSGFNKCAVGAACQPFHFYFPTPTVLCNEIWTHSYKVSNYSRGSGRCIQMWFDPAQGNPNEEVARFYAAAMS
Sequence of FR2 (P14207 17-230): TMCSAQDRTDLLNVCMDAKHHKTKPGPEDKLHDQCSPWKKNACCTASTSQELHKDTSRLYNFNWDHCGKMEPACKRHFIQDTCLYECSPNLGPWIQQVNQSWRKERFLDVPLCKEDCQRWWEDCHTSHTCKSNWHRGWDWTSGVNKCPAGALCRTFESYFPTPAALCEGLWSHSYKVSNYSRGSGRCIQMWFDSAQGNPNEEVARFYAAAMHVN

As to `CN1c2c(nc(N)[nH]c2=O)NC[C@@H]1CNc1ccc(C(=O)N[C@@H](CCC(=O)O)C(=O)O)cc1` [6S 5-methyltetrahydrofolate], the Kd was 55 nM at FR1 and 1 nM at FR2. As to `CC(C)C[C@H](NC(=O)[C@H](Cc1ccccc1)NC(=O)c1cnccn1)B(O)O` [bortezomib], the therapeutic effect result in the assay on LNCaP xenografts is “not effective”.

With “hepcidin (DTHFPICIFCCGCCHRSKCGMCCKT; ends and bridges not checked; cysteine pairing not given here; UniProt P81172 60-84, looked up) [peptide hormone, key regulator of iron homeostasis]”, the “FPN on the cell surface” value with 22RV1 cells is given as “lowered FPN on the cell surface”.
